The supplement of paper PMC10307832

Tests used:
Assay in all cases: relative viability (nuclei count vs DMSO), 5 days (fraction); higher = more cells survive
ChaGo-K-1 = tested on: ChaGo-K-1
Outline: (§1)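 Lung cancer cell lines were pin-tool dosed in 1536-well plates on the day after seeding, with either a lone drug or a fixed anchor-drug dose plus five library-drug doses (not always all listed) in √10 steps. Nuclei were counted on 4× images after 5 days. Relative viability is the ratio of treated-well to vehicle-well nuclei counts, with each value a median of duplicate plates.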

EKVX = tested on: EKVX
Outline: as §1

EMC-BAC-2 = tested on: EMC-BAC-2
Outline: as §1

EPLC-272H = tested on: EPLC-272H
Outline: as §1

H3255 = tested on: H3255
Outline: as §1

HARA = tested on: HARA
Outline: as §1

HCC-15 = tested on: HCC-15
Outline: as §1

HCC-827 = tested on: HCC-827
Outline: as §1

LC-2-ad = tested on: LC-2-ad
Outline: as §1

LCLC-103H = tested on: LCLC-103H
Outline: as §1

LK-2 = tested on: LK-2
Outline: as §1

NCI-H1648 = tested on: NCI-H1648
Outline: as §1

NCI-H1792 = tested on: NCI-H1792
Outline: as §1

NCI-H1793 = tested on: NCI-H1793
Outline: as §1

NCI-H1944 = tested on: NCI-H1944
Outline: as §1

NCI-H2170 = tested on: NCI-H2170
Outline: as §1

NCI-H23 = tested on: NCI-H23
Outline: as §1

NCI-H2405 = tested on: NCI-H2405
Outline: as §1

NCI-H3122 = tested on: NCI-H3122
Outline: as §1

NCI-H596 = tested on: NCI-H596
Outline: as §1

RERF-LC-KJ = tested on: RERF-LC-KJ
Outline: as §1

SW 1573 = tested on: SW 1573
Outline: as §1

SW 900 = tested on: SW 900
Outline: as §1

Compound: C=C1C(=O)O[C@@H](CCCCCCCC)[C@@H]1C(=O)O [C-75] + O=C(c1cc(Cc2n[nH]c(=O)c3ccccc23)ccc1F)N1CCN(C(=O)C2CC2)CC1 [Olaparib] (partner 8 µM)
- relative viability (ChaGo-K-1; first compound 0.08 µM): 0.401
- relative viability (ChaGo-K-1; first compound 0.253 µM): 0.392
- relative viability (ChaGo-K-1; first compound 0.8 µM): 0.411
- relative viability (ChaGo-K-1; first compound 2.53 µM): 0.358
- relative viability (ChaGo-K-1; first compound 8 µM): 0.401
- relative viability (EKVX; first compound 0.08 µM): 0.811
- relative viability (EKVX; first compound 0.253 µM): 0.884
- relative viability (EKVX; first compound 0.8 µM): 0.837
- relative viability (EKVX; first compound 8 µM): 0.759
- relative viability (EMC-BAC-2; first compound 0.08 µM): 0.506
- relative viability (EMC-BAC-2; first compound 0.253 µM): 0.464
- relative viability (EMC-BAC-2; first compound 0.8 µM): 0.475
- relative viability (EMC-BAC-2; first compound 2.53 µM): 0.389
- relative viability (EMC-BAC-2; first compound 8 µM): 0.389
- relative viability (EPLC-272H; first compound 0.08 µM): 0.874
- relative viability (EPLC-272H; first compound 0.253 µM): 0.878
- relative viability (EPLC-272H; first compound 0.8 µM): 0.702
- relative viability (EPLC-272H; first compound 2.53 µM): 0.701
- relative viability (EPLC-272H; first compound 8 µM): 0.436
- relative viability (H3255; first compound 0.08 µM): 0.629
- relative viability (H3255; first compound 0.253 µM): 0.581
- relative viability (H3255; first compound 0.8 µM): 0.583
- relative viability (H3255; first compound 2.53 µM): 0.537
- relative viability (H3255; first compound 8 µM): 0.573
- relative viability (HARA; first compound 0.08 µM): 0.76
- relative viability (HARA; first compound 0.253 µM): 0.749
- relative viability (HARA; first compound 0.8 µM): 1.04
- relative viability (HARA; first compound 2.53 µM): 0.803
- relative viability (HARA; first compound 8 µM): 0.715
- relative viability (HCC-15; first compound 0.08 µM): 0.686
- relative viability (HCC-15; first compound 0.253 µM): 0.752
- relative viability (HCC-15; first compound 0.8 µM): 0.672
- relative viability (HCC-15; first compound 2.53 µM): 0.612
- relative viability (HCC-15; first compound 8 µM): 0.785
- relative viability (HCC-827; first compound 0.253 µM): 0.622
- relative viability (HCC-827; first compound 0.8 µM): 0.595
- relative viability (HCC-827; first compound 8 µM): 0.657
- relative viability (LC-2-ad; first compound 0.08 µM): 0.683
- relative viability (LC-2-ad; first compound 0.253 µM): 0.751
- relative viability (LC-2-ad; first compound 0.8 µM): 0.343
- relative viability (LC-2-ad; first compound 2.53 µM): 0.596
- relative viability (LC-2-ad; first compound 8 µM): 0.668
- relative viability (LCLC-103H; first compound 0.08 µM): 0.8
- relative viability (LCLC-103H; first compound 0.253 µM): 0.719
- relative viability (LCLC-103H; first compound 0.8 µM): 0.697
- relative viability (LCLC-103H; first compound 2.53 µM): 0.641
- relative viability (LCLC-103H; first compound 8 µM): 0.767
- relative viability (LK-2; first compound 0.08 µM): 0.674
- relative viability (LK-2; first compound 0.253 µM): 0.84
- relative viability (LK-2; first compound 0.8 µM): 0.64
- relative viability (LK-2; first compound 2.53 µM): 0.596
- relative viability (LK-2; first compound 8 µM): 0.502
- relative viability (NCI-H1648; first compound 0.08 µM): 0.921
- relative viability (NCI-H1648; first compound 0.253 µM): 1.3
- relative viability (NCI-H1648; first compound 0.8 µM): 0.597
- relative viability (NCI-H1648; first compound 8 µM): 1.03
- relative viability (NCI-H1792; first compound 0.08 µM): 0.384
- relative viability (NCI-H1792; first compound 0.253 µM): 0.438
- relative viability (NCI-H1792; first compound 0.8 µM): 0.462
- relative viability (NCI-H1792; first compound 2.53 µM): 0.306
- relative viability (NCI-H1792; first compound 8 µM): 0.431
- relative viability (NCI-H1793; first compound 0.08 µM): 0.766
- relative viability (NCI-H1793; first compound 0.253 µM): 0.988
- relative viability (NCI-H1793; first compound 2.53 µM): 0.705
- relative viability (NCI-H1793; first compound 8 µM): 0.83
- relative viability (NCI-H1944; first compound 0.08 µM): 0.381
- relative viability (NCI-H1944; first compound 0.253 µM): 0.419
- relative viability (NCI-H1944; first compound 0.8 µM): 0.353
- relative viability (NCI-H1944; first compound 2.53 µM): 0.392
- relative viability (NCI-H1944; first compound 8 µM): 0.428
- relative viability (NCI-H2170; first compound 0.08 µM): 0.594
- relative viability (NCI-H2170; first compound 0.253 µM): 0.633
- relative viability (NCI-H2170; first compound 0.8 µM): 0.541
- relative viability (NCI-H2170; first compound 2.53 µM): 0.647
- relative viability (NCI-H2170; first compound 8 µM): 0.627
- relative viability (NCI-H23; first compound 0.08 µM): 0.364
- relative viability (NCI-H23; first compound 0.253 µM): 0.334
- relative viability (NCI-H23; first compound 0.8 µM): 0.239
- relative viability (NCI-H23; first compound 2.53 µM): 0.555
- relative viability (NCI-H23; first compound 8 µM): 0.24
- relative viability (NCI-H2405; first compound 0.08 µM): 0.808
- relative viability (NCI-H2405; first compound 0.253 µM): 0.734
- relative viability (NCI-H2405; first compound 0.8 µM): 0.879
- relative viability (NCI-H2405; first compound 2.53 µM): 0.803
- relative viability (NCI-H2405; first compound 8 µM): 0.852
- relative viability (NCI-H3122; first compound 0.08 µM): 0.662
- relative viability (NCI-H3122; first compound 0.253 µM): 0.636
- relative viability (NCI-H3122; first compound 0.8 µM): 0.567
- relative viability (NCI-H3122; first compound 2.53 µM): 0.51
- relative viability (NCI-H3122; first compound 8 µM): 0.635
- relative viability (NCI-H596; first compound 0.08 µM): 0.73
- relative viability (NCI-H596; first compound 0.253 µM): 0.686
- relative viability (NCI-H596; first compound 0.8 µM): 0.626
- relative viability (NCI-H596; first compound 2.53 µM): 0.601
- relative viability (NCI-H596; first compound 8 µM): 0.656
- relative viability (RERF-LC-KJ; first compound 0.08 µM): 1.02
- relative viability (RERF-LC-KJ; first compound 0.253 µM): 0.966
- relative viability (RERF-LC-KJ; first compound 0.8 µM): 0.897
- relative viability (RERF-LC-KJ; first compound 2.53 µM): 0.729
- relative viability (RERF-LC-KJ; first compound 8 µM): 0.797
- relative viability (SW 1573; first compound 0.08 µM): 0.485
- relative viability (SW 1573; first compound 0.253 µM): 0.547
- relative viability (SW 1573; first compound 0.8 µM): 0.505
- relative viability (SW 1573; first compound 2.53 µM): 0.309
- relative viability (SW 1573; first compound 8 µM): 0.224
- relative viability (SW 900; first compound 0.08 µM): 0.923
- relative viability (SW 900; first compound 0.253 µM): 0.945
- relative viability (SW 900; first compound 0.8 µM): 1.05
- relative viability (SW 900; first compound 2.53 µM): 0.803
- relative viability (SW 900; first compound 8 µM): 0.977
